Reference: US20160039879A1, “NOVEL CYCLOSPORIN DERIVATIVES AND USES THEREOF” (S&T Global Inc., priority 2013, published 2016)
Starred links: 1 amine or outer side, 2 acyl side, 3 side chain; linkers in the order of their positions; H or OH if unused. Non-standard residues stand in square brackets, D forms with d. Residues, ends and D or L forms follow the SMILES beside them. ξ: configuration not given here. X12 = COc1ccc(COC(C)(C)C[C@@H](C(=O)[*:2])N(C)[*:1])cc1; X8 = CN([C@@H](CC(C)(C)OCc1ccccc1)C(=O)[*:2])[*:1]; MeBmt = C/C=C/C[C@@H](C)[C@@H](O)[C@H](NC)C(=O)O; X3 = CN([C@H](SCCCN1CCOCC1)C(=O)[*:2])[*:1]; X1 = CCN(CC)CCCS[C@H](C(=O)[*:2])N(C)[*:1]; X7 = CCN(CC)CCS[C@@H](C(=O)[*:2])N(C)[*:1]; X13 = CCOCOC(C)(C)CC(C(=O)[*:2])N(C)[*:1]; X2 = CCN(CC)CCS[C@H](C(=O)[*:2])N(C)[*:1]; X4 = CC=CCC(C)C(O)C(C(=O)[*:2])N(C)[*:1]; X9 = CN(C(SCCCN1CCOCC1)C(=O)[*:2])[*:1]; NMeIle(3ξ) = CCC(C)[C@H](NC)C(=O)O; NMeL = CN[CH](CC(C)C)C(=O)O; NMeV = CN[CH](C(=O)O)C(C)C; Abu = CC[CH](N)C(=O)O

tested on: HCV replicon in cell line ET (luc-ubi-neo/ET), Huh7 human hepatoma cell line; assay: HCV subgenomic replicon assay (luciferase end point); assay type: cell-based; conditions: Hepatitis C virus, Huh-7, Table 11, HCV replicon, read-out: Antiviral activity EC50

Row | Compound | EC50 [µM]
1 | C/C=C/C[C@@H](C)[C@@H](O)[C@H]1C(=O)N[C@@H](CC)C(=O)N(C)[C@H](SCCCN2CCOCC2)C(=O)N(C)[C@@H](CC(C)(C)O)C(=O)N[C@@H](C(C)C)C(=O)N(C)[C@@H](CC(C)C)C(=O)N[C@@H](C)C(=O)N[C@H](C)C(=O)N(C)[C@@H](CC(C)C)C(=O)N(C)[C@@H](CC(C)C)C(=O)N(C)[C@@H](C(C)C)C(=O)N1C [[(R)-3-(N-Morpholino)propylthio-Sar]-3-[(γ-hydroxy)-NMeLeu]-4-cyclosporin] | 0.05
2 | C/C=C/C[C@@H](C)[C@@H](O)[C@H]1C(=O)N[C@@H](CC)C(=O)N(C)[C@H](SCCCN(CC)CC)C(=O)N(C)[C@@H](CC(C)(C)O)C(=O)N[C@@H](C(C)C)C(=O)N(C)[C@@H](CC(C)C)C(=O)N[C@@H](C)C(=O)N[C@H](C)C(=O)N(C)[C@@H](CC(C)C)C(=O)N(C)[C@@H](CC(C)C)C(=O)N(C)[C@@H](C(C)C)C(=O)N1C [[(R)-3-(N,N Diethylamino)propylthio-Sar]-3-[(γ-hydroxy)-NMeLeu]-4-cyclosporin] | 0.07
3 | C/C=C/C[C@@H](C)[C@@H](O)[C@H]1C(=O)N[C@@H](CC)C(=O)N(C)[C@H](SCCCN2CCOCC2)C(=O)N(C)[C@@H](CC(C)(C)OC)C(=O)N[C@@H](C(C)C)C(=O)N(C)[C@@H](CC(C)C)C(=O)N[C@@H](C)C(=O)N[C@H](C)C(=O)N(C)[C@@H](CC(C)C)C(=O)N(C)[C@@H](CC(C)C)C(=O)N(C)[C@@H](C(C)C)C(=O)N1C [[(R)-3-(N-Morpholino)propylthio-Sar]-3-[(γ-methoxy)-NMeLeu]-4-cyclosporin] | 0.06

same assay, conditions: Hepatitis C virus, Huh-7, Table 13, HCV replicon, read-out: Antiviral activity EC50

Row | Compound | EC50 [µM]
4 | C/C=C/C[C@@H](C)[C@@H](O)[C@H]1C(=O)N[C@@H](CC)C(=O)N(C)[C@H](SCCCN(CC)CC)C(=O)N(C)[C@@H](C(C)CC)C(=O)N[C@@H](C(C)C)C(=O)N(C)[C@@H](CC(C)C)C(=O)N[C@@H](C)C(=O)N[C@H](C)C(=O)N(C)[C@@H](CC(C)C)C(=O)N(C)[C@@H](CC(C)C)C(=O)N(C)[C@@H](C(C)C)C(=O)N1C (stereo partly drawn) [[(R)-3-(N,N-Diethylamino)propylthio-Sar]-3-[NMeIle]-4-cyclosporin] (cyclo(A[dA][NMeL][NMeL][NMeV][MeBmt][Abu][X1][NMeIle(3ξ)]V[NMeL])) | 0.08
5 | C/C=C/C[C@@H](C)[C@@H](O)[C@H]1C(=O)N[C@@H](CC)C(=O)N(C)[C@H](CSCCN(CC)CC)C(=O)N(C)[C@@H](CC(C)C)C(=O)N[C@@H](C(C)C)C(=O)N(C)[C@@H](CC(C)C)C(=O)N[C@@H](C)C(=O)N[C@H](C)C(=O)N(C)[C@@H](CC(C)C)C(=O)N(C)[C@@H](CC(C)C)C(=O)N(C)[C@@H](C(C)C)C(=O)N1C (single isomer, unassigned) [Example 7, isomer B] | 0.16
6 | C/C=C/C[C@@H](C)[C@@H](O)[C@H]1C(=O)N[C@@H](CC)C(=O)N(C)[C@H](SCCCN(CC)CC)C(=O)N(C)[C@@H](C(C)C)C(=O)N[C@@H](C(C)C)C(=O)N(C)[C@@H](CC(C)C)C(=O)N[C@@H](C)C(=O)N[C@H](C)C(=O)N(C)[C@@H](CC(C)C)C(=O)N(C)[C@@H](CC(C)C)C(=O)N(C)[C@@H](C(C)C)C(=O)N1C [[(R)-3-(N,N-Diethylamino)propylthio-Sar]-3-[N-MeVal]-4-cyclosporin] (cyclo(A[dA][NMeL][NMeL][NMeV][MeBmt][Abu][X1][NMeV]V[NMeL])) | 0.07
7 | C/C=C/C[C@@H](C)[C@@H](O)[C@H]1C(=O)N[C@@H](CC)C(=O)N(C)[C@H](CSCCN(C)C)C(=O)N(C)[C@@H](CC(C)C)C(=O)N[C@@H](C(C)C)C(=O)N(C)[C@@H](CC(C)C)C(=O)N[C@@H](C)C(=O)N[C@H](C)C(=O)N(C)[C@@H](CC(C)C)C(=O)N(C)[C@@H](CC(C)C)C(=O)N(C)[C@@H](C(C)C)C(=O)N1C (single isomer, unassigned) [Example 6, isomer B] | 0.17

same assay, conditions: Hepatitis C virus, Huh-7, Table 15, HCV replicon, read-out: Antiviral activity EC50

Row | Compound | EC50 [µM]
8 | C/C=C/C[C@@H](C)[C@@H](O)[C@H]1C(=O)N[C@@H](CC)C(=O)N(C)[C@H](CSCCCCC(CO)CO)C(=O)N(C)[C@@H](CC(C)(C)O)C(=O)N[C@@H](C(C)C)C(=O)N(C)[C@@H](CC(C)C)C(=O)N[C@@H](C)C(=O)N[C@H](C)C(=O)N(C)[C@@H](CC(C)C)C(=O)N(C)[C@@H](CC(C)C)C(=O)N(C)[C@@H](C(C)C)C(=O)N1C | 0.07
9 | C/C=C/C[C@@H](C)[C@@H](O)[C@H]1C(=O)N[C@@H](CC)C(=O)N(C)[C@H](CSCCCCC(C)(C)O)C(=O)N(C)[C@@H](CC(C)(C)O)C(=O)N[C@@H](C(C)C)C(=O)N(C)[C@@H](CC(C)C)C(=O)N[C@@H](C)C(=O)N[C@H](C)C(=O)N(C)[C@@H](CC(C)C)C(=O)N(C)[C@@H](CC(C)C)C(=O)N(C)[C@@H](C(C)C)C(=O)N1C | 0.06
10 | C/C=C/C[C@@H](C)[C@@H](O)[C@H]1C(=O)N[C@@H](CC)C(=O)N(C)[C@H](CSCC[C@H](CO)CCC)C(=O)N(C)[C@@H](CC(C)(C)O)C(=O)N[C@@H](C(C)C)C(=O)N(C)[C@@H](CC(C)C)C(=O)N[C@@H](C)C(=O)N[C@H](C)C(=O)N(C)[C@@H](CC(C)C)C(=O)N(C)[C@@H](CC(C)C)C(=O)N(C)[C@@H](C(C)C)C(=O)N1C | 0.07
11 | C/C=C/C[C@@H](C)[C@@H](O)[C@H]1C(=O)N[C@@H](CC)C(=O)N(C)[C@H](CSCC[C@@H](CO)CCC)C(=O)N(C)[C@@H](CC(C)(C)O)C(=O)N[C@@H](C(C)C)C(=O)N(C)[C@@H](CC(C)C)C(=O)N[C@@H](C)C(=O)N[C@H](C)C(=O)N(C)[C@@H](CC(C)C)C(=O)N(C)[C@@H](CC(C)C)C(=O)N(C)[C@@H](C(C)C)C(=O)N1C | 0.07
12 | C/C=C/C[C@@H](C)[C@@H](O)[C@H]1C(=O)N[C@@H](CC)C(=O)N(C)[C@H](CSC/C(=C/CN(CC)CC)CCC)C(=O)N(C)[C@@H](CC(C)(C)O)C(=O)N[C@@H](C(C)C)C(=O)N(C)[C@@H](CC(C)C)C(=O)N[C@@H](C)C(=O)N[C@H](C)C(=O)N(C)[C@@H](CC(C)C)C(=O)N(C)[C@@H](CC(C)C)C(=O)N(C)[C@@H](C(C)C)C(=O)N1C | 0.06

same assay, conditions: Table 10, HCV replicon, read-out: Antiviral activity EC50

Row | Compound | EC50 [µM]
13 | CC=CCC(C)C(O)C1C(=O)NC(CC)C(=O)N(C)C(SCCN(CC(C)C)C(C)C)C(=O)N(C)C(CC(C)C)C(=O)NC(C(C)C)C(=O)N(C)C(CC(C)C)C(=O)NC(C)C(=O)NC(C)C(=O)N(C)C(CC(C)C)C(=O)N(C)C(CC(C)C)C(=O)N(C)C(C(C)C)C(=O)N1C [(S)-2-(N-iso-Butyl-N-iso-propylamino)ethylthio-Sar]-3-cyclosporin] | 4.65
14 | C/C=C/C[C@@H](C)[C@@H](O)[C@H]1C(=O)N[C@@H](CC)C(=O)N(C)[C@H](SCCN(CC)CC)C(=O)N(C)[C@@H](C(C)C)C(=O)N[C@@H](C(C)C)C(=O)N(C)[C@@H](CC(C)C)C(=O)N[C@@H](C)C(=O)N[C@H](C)C(=O)N(C)[C@@H](CC(C)C)C(=O)N(C)[C@@H](CC(C)C)C(=O)N(C)[C@@H](C(C)C)C(=O)N1C [(R)-2-(N,N-Diethylamino)ethylthio-Sar]-3-[N-MeVal]-4-cyclosporin] (cyclo(A[dA][NMeL][NMeL][NMeV][MeBmt][Abu][X2][NMeV]V[NMeL])) | 0.04
15 | (R)-2-(N-iso-Butyl-N-iso-propylamino)ethylthio-Sar]-3-cyclosporin | 0.48
16 | C/C=C/C[C@@H](C)[C@@H](O)[C@H]1C(=O)N[C@@H](CC)C(=O)N(C)[C@@H](SCCN(CC)CC)C(=O)N(C)[C@@H](C(C)C)C(=O)N[C@@H](C(C)C)C(=O)N(C)[C@@H](CC(C)C)C(=O)N[C@@H](C)C(=O)N[C@H](C)C(=O)N(C)[C@@H](CC(C)C)C(=O)N(C)[C@@H](CC(C)C)C(=O)N(C)[C@@H](C(C)C)C(=O)N1C [(S)-2-(N,N-Diethylamino)ethylthio-Sar]-3-[N-MeVal]-4-cyclosporin] (cyclo(A[dA][NMeL][NMeL][NMeV][MeBmt][Abu][X7][NMeV]V[NMeL])) | 3.66
17 | (S)-2-(N,N-Diethylamino)ethylthio-Sar]-3-[N-MeIle]-4-cyclosporin | 1.87

same assay, conditions: Table 11, HCV replicon, read-out: Antiviral activity EC50

Row | Compound | EC50 [µM]
18 | C/C=C/C[C@@H](C)[C@@H](O)[C@H]1C(=O)N[C@@H](CC)C(=O)N(C)[C@H](SCCCN2CCOCC2)C(=O)N(C)[C@@H](CC(C)(C)OCc2ccc(OC)cc2)C(=O)N[C@@H](C(C)C)C(=O)N(C)[C@@H](CC(C)C)C(=O)N[C@@H](C)C(=O)N[C@H](C)C(=O)N(C)[C@@H](CC(C)C)C(=O)N(C)[C@@H](CC(C)C)C(=O)N(C)[C@@H](C(C)C)C(=O)N1C (cyclo(A[dA][NMeL][NMeL][NMeV][MeBmt][Abu][X3][X12]V[NMeL])) | 0.28
19 | C/C=C/C[C@@H](C)[C@@H](O)[C@H]1C(=O)N[C@@H](CC)C(=O)N(C)[C@H](SCCCN2CCOCC2)C(=O)N(C)[C@@H](CC(C)(C)OCc2ccccc2)C(=O)N[C@@H](C(C)C)C(=O)N(C)[C@@H](CC(C)C)C(=O)N[C@@H](C)C(=O)N[C@H](C)C(=O)N(C)[C@@H](CC(C)C)C(=O)N(C)[C@@H](CC(C)C)C(=O)N(C)[C@@H](C(C)C)C(=O)N1C [[(R)-(3-(N-Morpholino)propylthio-Sar]-3-[(γ-benzyloxy)-N-MeLeu]-4-cyclosporin] (cyclo(A[dA][NMeL][NMeL][NMeV][MeBmt][Abu][X3][X8]V[NMeL])) | 0.28
20 | CC=CCC(C)C(O)C1C(=O)NC(CC)C(=O)N(C)C(SCCCN2CCOCC2)C(=O)N(C)C(CC(C)(C)OCOCC)C(=O)NC(C(C)C)C(=O)N(C)C(CC(C)C)C(=O)NC(C)C(=O)NC(C)C(=O)N(C)C(CC(C)C)C(=O)N(C)C(CC(C)C)C(=O)N(C)C(C(C)C)C(=O)N1C (centres unmarked) (cyclo([X4][Abu][X9][X13]V[NMeL]AA[NMeL][NMeL][NMeV]); configuration not given here) | 0.16
